pIC50: −log10 of the molar value.
How the values were obtained:
Format in all cases: cell-based, human
[1] = system: A431 cells; experiment: In vitro cytotoxicity of taxanes, plating efficiency (clonogenic) assay, A431; details: read-out: IC50 value towards A431 cells
Description: (§1) The sulfide, disulfide, and sulfhydryl containing taxane drugs of the invention can be evaluated for their ability to suppress proliferation of various human tumor cell lines in vitro. Four adherent cell lines, A431 (human epidermoid carcinoma), SKBR3 (human breast tumor), A549 (human lung carcinoma) and MCF-7 (human breast tumor), and the non-adherent cell line, Namalwa (Burkitt's lymphoma) are used for the assessment of cytotoxicity of these compounds. Cells are exposed to the compounds for 72 hours and the surviving fractions of cells are measured in direct assays.
A431, A549 and MCF-7 cells were plated at different densities in 6-well tissue-culture plates in DMEM medium supplemented with 10% fetal calf serum. Taxane 2′, at varying concentrations, was added and the cells were maintained in a humidified atmosphere at 37° C. and 6% CO2 until colonies of approximately 20 cells or more were formed (6 to 10 days). Control plates contained no taxane. The cells were then fixed with formaldehyde, stained with crystal violet, and counted under a low-magnification microscope. Plating efficiencies were then determined from the colony numbers and surviving fractions of cells were calculated as the ratio of the plating efficiency of the treated sample and the plating efficiency of the control.

[2] = system: MCF-7 cells; experiment: In vitro cytotoxicity of taxanes, plating efficiency (clonogenic) assay, MCF-7; details: read-out: IC50 value towards MCF-7 cells
Description: (§2) The new taxanes and the disulfide containing taxane drugs of the invention can be evaluated for their ability to suppress proliferation of human tumor cell lines in vitro.
as §1
(§3) The cytotoxic potency of taxane 3′ was similarly confirmed. […] The cells were then fixed with formaldehyde, stained with crystal violet, and counted under a low-magnification microscope. Plating efficiencies were then determined from the colony numbers and surviving fractions of cells were calculated as the ratio of the plating efficiency of the treated sample and the plating efficiency of the control.
(§4) The new taxoids and the disulfide containing taxane drugs of the invention were evaluated for their ability to suppress proliferation of human tumor cell lines in vitro. […]
(§5) 18 and 37 was measured as follows. […]

[3] = system: A549 cells; experiment: In vitro cytotoxicity of taxanes, plating efficiency (clonogenic) assay, A549; details: read-out: IC50 value towards A549 cells
Description: as §2, §1, §3, §4, §5

Compound	pIC50 [1]	pIC50 [2]	pIC50 [3]
3′-dephenyl-3′-(isobutenyl)-7-(methyldisulfonyl-propanoyl)-docetaxel [Taxane 2′]	9.10	–	–
COc1ccc(OC)c(C(=O)OC2C3C4(OC(C)=O)COC4CC(OC(=O)CCSSC)C3(C)C(=O)C(O)C3=C(C)C(OC(=O)C(O)C(C=C(C)C)NC(=O)OC(C)(C)C)CC2(O)C3(C)C)c1 (stereo not drawn) [Taxane 3′, 3′-dephenyl-3′-(isobutenyl)-2-debenzoyl-2-(2,5-dimethoxybenzoyl)-7-(methyldisulfonyl-propanoyl)-docetaxel]	–	10.20	9.74

Source: patent publication US7495114B2, “Cytotoxic agents containing novel potent taxanes and their therapeutic use” (Immunogen Inc., priority 2002, dated 2009)
